The values that follow come from patent US5169841A, “Renin inhibitors” (Hoechst Aktiengesellschaft, priority 1987, dated 1992).

In the assay the target is T1, human plasma renin (Homo sapiens, UniProt P00797).
T1 construct: from tissue; host or cells: human EDTA plasma from volunteer subjects
T1 sequence (P00797 67-406): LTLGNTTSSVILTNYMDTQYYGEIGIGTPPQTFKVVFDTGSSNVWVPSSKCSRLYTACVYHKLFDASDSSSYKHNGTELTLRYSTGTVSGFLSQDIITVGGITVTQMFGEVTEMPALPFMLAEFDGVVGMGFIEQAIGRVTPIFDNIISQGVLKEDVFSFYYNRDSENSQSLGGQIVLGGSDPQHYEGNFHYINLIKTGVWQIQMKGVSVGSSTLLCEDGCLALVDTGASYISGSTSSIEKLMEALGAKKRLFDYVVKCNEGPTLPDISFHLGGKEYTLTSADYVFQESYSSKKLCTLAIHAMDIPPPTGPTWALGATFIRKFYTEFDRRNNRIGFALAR
In words: Inhibition of angiotensin I formation in human plasma (Renin-Maia radioimmunoassay). The class given is biochemical. The settings on record: 37° C., 1 hour, % residual plasma renin activity by angiotensin I RIA. On the procedure: The activity of renin inhibitors can be checked by in vitro tests. These entail the decrease in the formation of angiotensin I being measured in various systems (human plasma, purified human renin).
For example human plasma which contains both renin and angiotensinogen is incubated at 37° C. with the compound to be tested. During this, angiotensin I is liberated from angiotensinogen under the action of renin and can subsequently be measured using a commercially available radioimmunoassay. This liberation of angiotensin is inhibited by renin inhibitors.
The blood is obtained from volunteer subjects (about 0.5 litre per person; Bluko sampler from ASID Bonz and Sohn, Unterschleissheim) and is collected in partially evacuated bottles while cooling in ice. Coagulation is prevented by addition of EDTA (final concentration 10 mM). After centrifugation, (HS 4 Rotor (Sorvall), 3500 rpm, 0°-4° C., 15 min; repeat if necessary), the plasma is carefully removed with a pipette and frozen in suitable portions at -30° C. Only plasma with sufficiently high renin activity are used for the test. Plasma with low renin activity are activated by cold treatment (-4° C., 3 days (prorenin→renin).
Angiotensin I is determined using the Renin-Maia® Kit (Serono Diagnostics S. A., Coinsins, Switzerland). The plasma is incubated in accordance with the instructions given therein:
1000 μl of plasma (defrozen at 0-4° C.)
100 μl of phosphate buffer (ph 7.4)
10 μl of 0.1% Genapol PFIC
12 μl of DMSO or test product
The test products are generally dissolved 10^-2 M in 100% dimethylsulfoxide (DMSO) and diluted appropriately with DMSO; the incubation mixture contains not more than 1% DMSO.
The mixtures are mixed up in ice and placed in a water bath (37° C.) for 1 hour for the incubation. 6 samples in total (each of 100 μl) are taken from an additional mixture without inhibitor and without further incubation for the determination of the initial angiotensin I content of the plasma used.
The concentrations of the test products are selected such that the 10-90% range of enzyme inhibition is approximately covered (at least five concentrations). At the end of the incubation time, three 100 μl samples from each mixture are frozen in precooled Eppendorf tubes on dry ice and stored at about -25° C. for the determination of angiotensin I (means from three individual samples).
The instructions for use of the RIA Kit (Rennin-Maia® Kit, Serono Diagnostics S. A., Coinsins, Switzerland) are followed exactly.
The calibration plot embraces the range from 0.2 to 25.0 ng of angiotensin I per ml. The basic angiotensin I content of the plasma is subtracted from all the measured values. The plasma renin activity (PRA) is reported as ng of Ang I/ml x hour. PRA values in the presence of the test substances are related to a mixture without inhibitor (=100%) and reported as % residual activity. The IC50 value is read off from the plot of % residual activity against the concentration (M) of the test product (logarithmic scale).

pIC50: −log10 of the molar value.

The compound `CCC[C@H](NC(=O)[C@H](Cc1ccccc1)NC(=O)CC(C)C)C(=O)NC(CC1CCCCC1)B1OC2CC3CC(C3(C)C)C2(C)O1` (single isomer, unassigned) [Example 13, Iva-Phe-Nva-[cyclohexylmethyl, (-)-pinanedioxyboryl]-methylamide] had a pIC50 of 5.62.

In the case of `CCC[C@H](NC(=O)[C@H](Cc1ccccc1)NC(=O)CC(C)C)C(=O)NC(CC1CCCCC1)B1OC(C)(C)C(C)(C)O1` (stereo partly drawn) [Example 1, Iva-Phe-Nva-[cyclohexylmethyl,(4,4,5,5-tetramethyl-1,3,2-dioxaborolane-2-yl)]methylamide], the pIC50 was 6.38. For `CCCC[C@H](NC(=O)[C@H](Cc1ccccc1)NC(=O)CC(C)C)C(=O)NC(CC1CCCCC1)B1OC(C)(C)C(C)(C)O1` (stereo partly drawn) [Example 2, Iva-Phe-Nle-[cyclohexylmethyl,(4,4,5,5-tetramethyl-1,3,2-dioxaborolane-2-yl)]methylamide], the pIC50 is 6.00.

As to `CC(C)CC(=O)N[C@@H](Cc1ccccc1)C(=O)N[C@@H](Cc1c[nH]cn1)C(=O)NC(CC1CCCCC1)B1OC(C)(C)C(C)(C)O1` (stereo partly drawn) [Example 3, Iva-Phe-His-[cyclohexylmethyl,(4,4,5,5-tetramethyl-1,3,2-dioxaborolane-2-yl)]methylamide], the pIC50 is 5.70. The figure for `CC(C)CC(=O)N[C@@H](Cc1cccs1)C(=O)N[C@@H](Cc1c[nH]cn1)C(=O)NC(CC1CCCCC1)B1OC(C)(C)C(C)(C)O1` (stereo partly drawn) [Example 4, Iva-Thi-His-[cyclohexylmethyl,(4,4,5,5-tetramethyl-1,3,2-dioxaborolane-2-yl)]methylamide] is 6.35; for `CCC[C@H](NC(=O)[C@H](Cc1ccccc1)NC(=O)CC(C)C)C(=O)NC(CC1CCCCC1)B(O)O` (stereo partly drawn) [Example 5, Iva-Phe-Nva-(cyclohexylmethyl,dihydroxyboryl)methylamide] it is 6.26. Compound `CC(C)CC(=O)N[C@@H](Cc1ccccc1)C(=O)N[C@@H](Cc1cccs1)C(=O)NC(CC1CCCCC1)B1OC(C)(C)C(C)(C)O1` (stereo partly drawn) [Example 7, Iva-Phe-Thi-[cyclohexylmethyl,(4,4,5,5-tetramethyl-1,3,2-dioxaborolane-2-yl)]methylamide] had a pIC50 of 6.17. `CCC[C@H](NC(=O)[C@H](Cc1ccccc1)NC(=O)CC(C)C)C(=O)NC(CC1CCC(C)CC1)B1OC(C)(C)C(C)(C)O1` (stereo partly drawn) [Example 15, Iva-Phe-Nva-[(4-methylcyclohexyl)methyl,(4,4,5,5-tetramethyl-1,3,2-dioxaborolane-2-yl)]methylamide] had a pIC50 of 5.55.

The compound `CCC[C@H](NC(=O)[C@H](Cc1ccccc1)NC(=O)CC(C)C)C(=O)NC(CC1CCCCCC1)B1OC(C)(C)C(C)(C)O1` (some centres unmarked) [Example 16] had a pIC50 of 5.52.

`CC(C)CC(=O)N[C@@H](Cc1ccccc1)C(=O)N[C@@H](Cc1c[nH]cn1)C(=O)NC(CC1CCCCCCC1)B1OC(C)(C)C(C)(C)O1` (stereo partly drawn) [Example 18, Iva-Phe-His-[cycloctylmethyl,(4,4,5,5-tetramethyl-1,3,2-dioxaborolane-2-yl)]methylamide] showed a pIC50 of 5.05. As to `CC(C)CC(=O)N[C@@H](Cc1ccccc1)C(=O)N[C@@H](Cc1c[nH]cn1)C(=O)NC(CC1CCCCCC1)B1OC(C)(C)C(C)(C)O1` (stereo partly drawn) [Example 19, Iva-Phe-His-[cycloheptylmethyl,(4,4,5,5-tetramethyl-1,3,2-dioxaborolane-2-yl)]methylamide], the pIC50 was 5.10. As for `CCC[C@H](NC(=O)C(Cc1cccs1)CS(=O)(=O)C(C)(C)C)C(=O)NC(CC1CCCCC1)B1OC(C)(C)C(C)(C)O1` (some centres unmarked) [Example 35, [3-t-Butylsulfonyl,2-(2-thienylmethyl)]propionyl-Nva-[cyclohexylmethyl,(4,4,5,5-tetramethyl-1,3,2-dioxaborolane-2-yl)]methylamide], the pIC50 is 6.55.

With `CCC[C@H](NC(=O)C(Cc1ccccc1)CS(=O)(=O)C(C)(C)C)C(=O)NC(CC1CCCCC1)B1OC(C)(C)C(C)(C)O1` (some centres unmarked) [Example 36, (2-Benzyl,3-t-butylsulfonyl)propionyl-Nva-[cyclohexylmethyl,(4,4,5,5-tetramethyl-1,3,2-dioxaborolane-2-yl)]methylamide], the pIC50 was 6.21. The figure for `CC(C)[C@H](NC(=O)C(Cc1ccccc1)CS(=O)(=O)C(C)(C)C)C(=O)NC(CC1CCCCC1)B1OC(C)(C)C(C)(C)O1` (some centres unmarked) [Example 39, (2-Benzyl,3-t-butylsulfonyl)propionyl-Val-[cyclohexylmethyl,(4,4,5,5-tetramethyl-1,3,2-dioxaborolane-2yl)]-methylamide] is 5.68; for `CC1(C)OB(C(CC2CCCCCC2)NC(=O)[C@H](Cc2cccs2)NC(=O)C(Cc2cccs2)CS(=O)(=O)C(C)(C)C)OC1(C)C` (some centres unmarked) [Example 40, [3-t-Butylsulfonyl,2-(2-thienylmethyl)]propionyl-thi[cycloheptylmethyl,(4,4,5,5-tetramethyl-1,3,2-dioxaborolane-2-yl)]methylamide] it is 5.44. As for `CCC[C@H](NC(=O)C(Cc1cccs1)CS(=O)(=O)C(C)(C)C)C(=O)NC(CC1CCCCCC1)B1OC(C)(C)C(C)(C)O1` (some centres unmarked) [Example 41, [3-t-Butylsulfonyl,2-(2-thienylmethyl)]propionyl-Nva-[cycloheptylmethyl,(4,4,5,5-tetramethyl-1,3,2-dioxaborolane-2-yl)]methylamide], the pIC50 is 5.82. The figure for `CCC[C@H](NC(=O)C(Cc1cccc2ccccc12)CS(=O)(=O)C(C)(C)C)C(=O)NC(CC(C)C)B1OC(C)(C)C(C)(C)O1` (some centres unmarked) [Example 42, [3-t-Butylsulfonyl,2-(1-naphthylmethyl)]propionyl-Nva-[3-methyl,1-(4,4,5,5-tetramethyl-1,3,2-dioxaborolane-2-yl)]butylamide] is 6.02; for `CC1(C)OB(C(CC2CCCCC2)NC(=O)[C@H](Cc2cccs2)NC(=O)C(Cc2cccs2)CS(=O)(=O)C(C)(C)C)OC1(C)C` (some centres unmarked) [Example 43, [3-t-Butylsulfonyl,2-(2-thienylmethyl)]propionyl-Thi-[cyclohexylmethyl,(4,4,5,5-tetramethyl-1,3,2-dioxaborolane-2-yl)]methylamide] it is 6.26.

`CCC[C@H](NC(=O)C(Cc1ccccc1)CS(=O)(=O)C(C)(C)C)C(=O)NC(CC1CCCC1)B1OC(C)(C)C(C)(C)O1` (some centres unmarked) [Example 44, (2-Benzyl,3-t-butylsulfonyl)propionyl-Nva-[cyclopentylmethyl,(4,4,5,5-tetramethyl-1,3,2-dioxaborolane-2-yl)]-methylamide] gave a negative-log IC50 (pIC50) of 5.62. The figure for `CCC[C@H](NC(=O)C(Cc1cccc2ccccc12)CS(=O)(=O)C(C)(C)C)C(=O)NC(CC1CCCC1)B1OC(C)(C)C(C)(C)O1` (some centres unmarked) [Example 50] is 5.82; for `CCC[C@H](NC(=O)C(Cc1cccc2ccccc12)CS(=O)(=O)C(C)(C)C)C(=O)NC(CC(CC)CC)B1OC(C)(C)C(C)(C)O1` (some centres unmarked) [Example 51, [3-t-Butylsulfonyl,2-(1-naphthylmethyl)]propionyl-Nva-[3-ethyl,1-(4,4,5,5-tetramethyl-1,3,2-dioxaborolane-2-yl)]-pentylamide] it is 5.74. The figure for `CCC[C@H](NC(=O)C(Cc1ccccc1)CS(=O)(=O)C(C)(C)C)C(=O)NC(CC(CC)CC)B1OC(C)(C)C(C)(C)O1` (some centres unmarked) [Example 52, (2-Benzyl,3-t-butylsulfonyl)propionyl-Nvu-[3-ethyl,1-(4,4,5,5-tetramethyl-1,3,2-dioxaborolane-2-yl)]pentylamide] is 5.55; for `CC1(C)OB(C(CC2CCCCC2)NC(=O)[C@H](CC(N)=O)NC(=O)C(Cc2cccs2)CS(=O)(=O)C(C)(C)C)OC1(C)C` (some centres unmarked) [Example 54, (3-t-Butylsulfonyl,2-(2-thienylmethyl)]propionyl-Asn-[cyclohexylmethyl,(4,4,5,5-tetramethyl-1,3,2-dioxaborolane-2-yl)]methylamide] it is 6.05.
